Test results as given in patent publication US11419869B2, “Dosage forms and regimens for amino acid compounds” (Pliant Therapeutics, Inc., priority 2019, dated 2022).

Assays:
Mice (C57BL/6) = assay: Murine bleomycin model (Example B7); format: in vivo
Procedure: Mice (C57BL/6) were divided into healthy (n=15), vehicle-treated (n=15), and test article-treated (n=15 per dose) groups. Mice in the vehicle and test article-treated groups were administered 3 U/kg of bleomycin (Teva Pharmaceuticals; North Wales, Pa.) via oropharyngeal aspiration while under anesthesia on day 0. Healthy animals were administered water in a similar fashion. Starting on day 7, mice in the control group were administered PBS vehicle, 130 μL, by oral gavage, BID for 14 days. Also starting on day 7, mice in the test group were administered compound 5 in PBS by oral gavage, BID for 14 days, at relative dosages of 1×, 2.5× and 5×. […] From day 14 through day 21, 9 of the 15 mice were administered ^2H2O for labeling. All mice were sacrificed on day 21 and tissues were collected. Samples were prepared for analysis either directly from lung tissue, or by bronchoalveolar lavage, which washes out the bronchiolar and alveolar space with saline to produce a bronchoalveolar lavage fluid (BALF) in which 80-90% of cells are alveolar macrophages.
FIG. 4C is a graph showing that compared to the healthy mice, lung tissue in the vehicle-treated mice experienced a substantial increase in SMAD3 phosphorylation, which is a measure of TGF-β signaling-related kinase activity. […] FIG. 4D is a graph showing that compared to the healthy mice, lung tissue in the vehicle-treated mice experienced a substantial accumulation of new collagen as evidenced by the percentage of lung collagen containing ^2H-labeled hydroxyproline.
FIGS. 4F, 4G, and 4H show high resolution second harmonic generation images of fibrillar collagen (collagen type I and III) taken from formalin-fixed paraffin embedded lung tissue sections from a healthy mouse lung (4F), a vehicle-treated mouse lung (4G) and a test-article treated mouse lung (4H; 500 mg/kg BID). Color scale is indicative of collagen fiber density (red=most dense; blue=least dense).
FIG. 4I is a graph showing the percent total collagen area in the second harmonic generation mouse lung images. Large structural areas of collagen found similarly in healthy and fibrotic tissues (dense collagen fibers surrounding airways were excluded from this analysis to focus on interstitial fibrotic collagen). […] The 1×, 2.5×, and 5× dosages were at the same absolute values in mg/kg as in Example B7.
The data for FIGS. 4J and 4K, was obtained 14 days after bleomycin challenge in mice were treated with compound 5 at 2.5× dose (PO, BID for 1.5 days).

[1] = SAD and MAD first-in-human pharmacokinetic studies (Example B12); format: in vivo
Procedure: Healthy human subjects (N=85) were selected for single ascending dose (SAD) and multiple ascending dose (MAD) first-in-human studies. A solution for oral administration was prepared, containing 10 mg/mL of compound 5 in a 50:50 mixture of ORA-SWEET® SF (PERRIGO®, Allegan, Mich.) and sterile water for irrigation. Sufficient solution was administered orally to the subjects to provide between 15 mg/dose and 75 mg/dose of compound 5 in the SAD study and between 10 mg/dose and 40 mg/dose of compound 5 in the MAD study. Concentrations of compound 5 were measured in the subjects by obtaining a sample of plasma from each subject at desired intervals, and subjecting the plasma to liquid chromatography-mass spectrometry-mass spectrometry (LC-MS/MS), with quantification using a calibration curve determined from a range of solutions at standardized concentrations. The lower limit of quantitation (LLOQ) of the assay was 1 ng/mL and the calibration curve range was 1 to 500 ng/mL.

SMAD3 phosphorylation = assay: PSMAD3/SMAD3 in healthy mice treated for 4 days; format: in vivo; details: 4 days of treatment
Source text: It has been previously shown that inhibition of αvβ6 in the lung can be detected though measurement of phospho-SMAD (pSMAD) in alveolar macrophages. Alveolar macrophages are known to operate in a unique niche in the lung, distinct from interstitial macrophages. SMAD3 is a downstream target of the active TGF-β cytokine binding its receptor and in alveolar macrophages it is phosphorylated by homoeostatic levels of TGF-β. Accordingly, it was desirable to know whether inhibition of TGF-β activation using the disclosed compounds would result in reduced SMAD2 and SMAD3 phosphorylation.
FIG. 4A is a graph of PSMAD3/SMAD3 in lung tissue from healthy mice administered PBS vehicle and varying levels of compound 5 for 4 days. FIG. 4B is a graph of PSMAD3/SMAD3 in BALF drawn from the same healthy mice administered PBS vehicle and varying levels of compound 5 for 4 days.

COL1A1 expression = COL1A1 expression in precision cut lung slices (PCLS) from human IPF lung tissue; details: FIG. 6E, 200 pM to 1 μM

## COCCN(CCCCc1ccc2c(n1)NCCC2)CC[C@H](Nc1ncnc2ccccc12)C(=O)O [Compound 5, (S)-4-((2-methoxyethyl) (4-(5,6,7,8-tetrahydro-1,8-naphthyridin-2-yl)butyl)amino)-2-(quinazolin-4-ylamino) butanoic acid]
Mice (C57BL/6); 14 days after bleomycin, […] dose PO BID for 1.5 days, FIGS. 4J, 4K
  pSMAD3 levels in lung and BALF cells vs. plasma drug exposure: close inverse relationship
Mice (C57BL/6); bleomycin mice, 1× (p<0.05), […] (p<0.01), 5× (p<0.0001 vs vehicle), FIG. 4I
  percent total collagen area in second harmonic generation lung images: substantial, statistically significant dose-dependent reduction
Mice (C57BL/6); bleomycin mice, 1× and 5× (p<0.01 vs vehicle), FIG. 4D
  accumulated new collagen (percentage of lung collagen containing 2H-labeled hydroxyproline): dose-dependent reduction
Mice (C57BL/6); bleomycin mice, 1×, […], 5× (p<0.05 vs vehicle), FIG. 4E
  total pulmonary collagen, as measured by μg of hydroxyproline: reduction in total pulmonary collagen
Mice (C57BL/6); bleomycin mice, oral gavage BID 14 days at 1×, […], 5×, vs vehicle, FIG. 4C
  SMAD3 phosphorylation in lung tissue: substantial, statistically significant dose-dependent reductions
Mice (C57BL/6); bleomycin mice, time- and dose-dependent inhibition
  pSMAD3 levels in the lung: approximately 50 % of the untreated levels
[1]; healthy subjects
  oral bioavailability and pharmacokinetics: good oral bioavailability and pharmacokinetics
[1]; plasma, healthy human subjects, oral solution, SAD 15-75 mg, MAD 10-40 mg, read-out: calculated half life
  half-life: 18 to 20 h
SMAD3 phosphorylation; FIG. 4A
  PSMAD3/SMAD3 in lung tissue: approximately 50 % of the untreated levels
SMAD3 phosphorylation; cells isolated from BALF, FIG. 4B
  PSMAD3/SMAD3 in BALF: approximately 50 % of the untreated levels
COL1A1 expression
  COL1A1 expression: dose dependent reduction
